The structures appear in SMILES notation.

63 molecules from a melting point compilation (Tetko et al.; mined from patent text by program, amines drawn as free bases though some values may be those of a salt) can be followed below.

In turn, `CC1(C)OC(C=CC=Cc2ccc(Cl)cc2)=CC1=O` showed a melting point of 95 to 96 °C. The molecule `CCC(C)(C)Nc1c(NCc2cc(C)ccc2C)c(=O)c1=O` gave a melting point of 199 to 200 °C. In the case of `C[C@@H](Nc1ncnc2[nH]c(-c3ccc(CN4CCNCC4)cc3)cc12)c1ccccc1`, the melting point was in the range of 240 to 242 °C. The molecule `O=[N+]([O-])c1cccc(/C=C/c2nc(C3CC3)cs2)c1` displayed a melting point of 90 to 95 °C. Consider `CCCCNC(=O)C(=O)NCCCCCBr`, for which the melting point lay in the range of 109 to 110 °C. In turn, `CC(c1ccc2c(c1)N(Cc1ccc(S(C)(=O)=O)cc1)c1ccccc1S2)N(O)C(N)=O` (stereo not drawn) registered a melting point of 143 to 145 °C. Regarding `CN(C(CCn1c(=O)[nH]c2cscc2c1=O)C(=O)NO)S(=O)(=O)c1ccc(Oc2ccccc2)cc1` (stereo not drawn), the melting point lay in the range of 135 to 137 °C. Molecule `CCCCCCCCCCCCCCCCCCNCC(O)CO` (stereo not drawn) had a melting point of 81 to 83 °C.

As for `N#CC(=O)c1cccc(Cl)c1`, the melting point was in the range of 146 to 148 °C. `CC(=O)OCC(C)C1CCC2C3CC=C4CC(OC5CCCCO5)CC(OC5CCCCO5)C4(C)C3CCC12C` (stereo not drawn): the melting point lay within 155 to 161 °C. Consider `Nc1ccc(S(=O)(=O)c2cccc3cnccc23)cc1`, for which the melting point lay in the range of 207 to 209 °C. In the case of `CC(C)(C)OC(=O)C(N)Cn1c(=O)c(-c2cccs2)nc2ccccc21` (stereo not drawn), the melting point was in the range of 144 to 145 °C. `Oc1ccc2sc(C=C3C4CC5CC(C4)CC3C5)nc2c1` registered a melting point of 156 to 158 °C. To `COc1ccc(C(=O)Nc2ccccc2)cc1NC(=S)Nc1cc(C)cc(C)c1` belongs 203 to 205 °C; to `CC(C)(C)Cc1ccc2c(c1)C(=O)c1ccccc1C2=O`, 93.8 °C; to `O=C(Nc1ccccn1)c1nnc2ccccc2c1O`, 341 to 343 °C. For `CCc1nc2cccc(C)c2c(=O)n1C1CCC(=O)NC1=O` (stereo not drawn) the value was 228 to 230 °C. For the molecule `COc1cc2c(cc1OC)CC(=O)N(Cc1ccccc1)CC2`, the melting point was in the range of 141 to 142 °C. For `CCOC(=O)c1cc(C(O)CBr)c(=O)[nH]c1C(=O)OCC` (stereo not drawn) the value was 134 to 138 °C. To `FC(F)(F)COc1ccc(CCNc2ncnc3scnc23)cn1` belongs 109 to 112 °C.

Turning to `CCOC(=O)c1c(C)nc2c(c1N)c1ccccc1n2Cc1ccc(OC)cc1`, the melting point fell in the range of 138 to 140 °C. In turn, `CC(=O)OC1CSC(Oc2ccc(C)nc2-c2ccoc2)C(OC(C)=O)C1OC(C)=O` (stereo not drawn) had a melting point of 117 °C. For `Cc1nnc2n1-c1sc(Cl)cc1C(c1c(F)cccc1F)=NC2` the value was 185 to 187 °C; for `CC(C)(C)c1cc(NC(=O)Nc2cccc(Oc3nc4ccccc4s3)c2)[nH]n1`, 110 to 111 °C; for `NC(=O)C12CCCC(C1)C1CCC2C1` (stereo not drawn), 173 to 174 °C. `Cc1ccc2c(Br)c(Br)sc2c1`: the melting point fell in the range of 67.5 to 68.5 °C. For `O=C(C(c1ccc(Cl)cc1)c1c(Cl)cc(-n2ncc(=O)[nH]c2=O)cc1Cl)N1CCCCC1` (stereo not drawn) the value was 217 °C. Molecule `CCCCCCCCCCCCCCCO/N=C(\CCCCCCCCCCCCCCC)CC(=O)O` registered a melting point of 65 to 67 °C. For `COc1ccc(-c2cc(=O)n(Cc3cc(OC)c(OC)c(OC)c3)nc2-c2ccc(OC)cc2)cc1`, the melting point lay in the range of 138 to 139 °C.

For the molecule `[N-]=[N+]=NCCc1cccc2[nH]cc(S(=O)(=O)c3cccc(F)c3)c12`, the melting point was 136 to 138 °C. `NS(=O)(=O)c1ccc(-c2[nH]c3ccccc3c2-c2ccc(F)cc2)cc1`: the melting point was 228 to 230 °C. Consider `COC(=O)CCCC#Cc1cc(Cl)ccc1NS(=O)(=O)c1sc(NC(C)=O)nc1C`, for which the melting point fell in the range of 147 to 149 °C. Turning to `COC(=O)c1cccc(-c2nc(-c3ccc(C(F)(F)F)cc3)co2)c1`, the melting point fell in the range of 151 to 152 °C.

The molecule `COC(=O)COc1cc2ccccc2c2c1c(C(=O)C(N)=O)c(C)n2Cc1cccc(-c2ccc(F)cc2)c1` registered a melting point of 157 to 159 °C. In turn, `Cc1nc2c(N)nc3ccccc3c2n1CCC(=O)N1CCOCC1` returned a melting point of 166 to 169 °C. In the case of `COc1cc(Nc2c(C#N)cnc3cc(-c4ccc5ccccc5c4)ccc23)c(Cl)cc1Cl`, the melting point is 243 to 244 °C.

As to `Fc1cc(Cl)ccc1-n1nc2c(c1Cl)CCC2`, the melting point lay within 102 to 104 °C. `c1cnc(Sc2cccc3cccnc23)nc1` came in with a melting point of 165 to 168 °C. Molecule `COC(=O)CCNC(=O)c1cc(NC(=O)c2ccc(C(=N)NC(=O)OC(C)(C)C)cc2)ccc1O` registered a melting point of 177 to 179 °C.

With `CCC(=O)On1c(=O)c(=O)[nH]c2cc(C(F)(F)F)c(C#N)cc21`, the melting point stood at 227 °C. To `CCOC(=O)[C@H](Cc1ccc(-c2c(C)n(C)c(=O)n(C)c2=O)cc1)NC(=O)c1c(F)cccc1F` belongs 218 to 219 °C. Turning to `Cc1ccc(C(=O)c2ccc(SCCO)cc2)cc1C`, the melting point lay in the range of 92 to 93 °C. Consider `CC(C)(C)OC(=O)NC1CCN(C(=O)OCCC2(C(=O)NCC(F)(F)F)c3ccccc3-c3ccccc32)CC1`, for which the melting point lay in the range of 84 to 86 °C.

`COc1ccc(N2Cc3nc(CO)nn3-c3cccnc32)cc1` gave a melting point of 190 to 194 °C. Turning to `CS(=O)(=O)Nc1cc2occ(C#N)c(=O)c2cc1Oc1ccccc1`, the melting point worked out at 220 °C.

Molecule `Cc1nc(-c2ccc(Cl)cc2)oc1COC(C)(C)C(N)=O` registered a melting point of 177 to 178 °C. Molecule `CCOC(=O)c1oc2c(C(=O)c3ccccc3)ccc(OC)c2c1C` yielded a melting point of 137 to 139 °C. For the molecule `CC(=NO)c1cccc(N)c1`, the melting point is 133 °C. For `C=CCc1cccc2nc(Cc3ccccc3Cl)oc12`, the melting point was 61 to 62 °C. For `COc1ccc(-c2c(C(=O)O)c(=O)[nH]c3ccc(C)cc23)cc1OC` the value was 240 to 241 °C; for `Cc1ccc(NC(=N)c2ccccn2)cc1C`, 105 to 107 °C. In turn, `CSc1nc2c(cc1F)c(=O)[nH]c(=O)n2C1CC1` gave a melting point of 220 to 222 °C. `C#CCNC(=C[N+](=O)[O-])NCCSCc1ncccc1Cl` returned a melting point of 171 to 172 °C. To `Cc1nc(Cl)ccc1C#N` belongs 104 to 105 °C; to `NC(=O)c1nn(-c2ccc(S(N)(=O)=O)cc2)c2cc(-c3ccc(F)cc3)ccc12`, 314 to 315 °C. `CN1c2ccc([N+](=O)[O-])cc2C(C)(C)C12C=Nc1cc(-c3ccc(N4CCCC4)cc3)c3ccccc3c1O2` (stereo not drawn) returned a melting point of 260 to 262 °C. To `CC(C)(C)c1ccc(OCC(O)CN2CCC3(CC2)CSC2=C(O3)c3ccccc3C(=O)C2=O)cc1` (stereo not drawn) belongs 150 to 152 °C.

In turn, `CC(Nc1ccccc1N)=C1C(=O)OC(=O)C(C(=O)C=Cc2ccc(O)cc2)=C1O` returned a melting point of 223 to 225 °C. In turn, `CCOC(=O)c1[nH]c2cccnc2c1-c1ccc([N+](=O)[O-])cc1` yielded a melting point of 234 to 236 °C. `CCOC(=O)C=Cc1ccc(C(=O)Cl)cc1`: the melting point was found to be 76.8 °C. As to `COc1cc2ncc(C#N)c(Nc3ccc(F)c(Cl)c3)c2cc1NC(=O)C=CCN1CCC(O)CC1`, the melting point is > 215 °C.

`COc1ccc(N(Cc2cccnc2)S(C)(=O)=O)c(OC)c1` had a melting point of 117 to 119 °C. As for `Cc1c(-c2cnco2)[nH]c(=O)c2c1ccc1nc(Nc3c(Cl)cccc3Cl)n(C)c12`, the melting point is > 300 °C.

Usually melting point stands for the temperature, or range, at which the solid turns liquid.
